Values joined by “and” are separate entries in the source; they are usually repeats but may differ in a detail not shown here. Identical values can stand only once.

Type in all cases: cell-based, human
Test [1] has as its system ARE. In words: ARE-luc reporter assay. To be noted: IMR-32 cells. On the procedure:
IMR-32 cells (33,000 cells/well) were transiently transfected with ARE-luc plasmid (100 ng/well) using FuGENE® HD (Roche Diagnostics) as a transfection reagent (1:3, w/v). The cells were dispensed into each well of a 96-well plate and incubated for 24 h. They were then treated with solvent control (DMSO or EtOH, 1%, v/v) or individual extracts/fractions/compounds for 24 h before ARE activities were detected by using BriteLite detection reagent (PerkinElmer). Relative fold activation for the treated samples over solvent control was reported. The ARE-luciferase (ARE-luc) reporter contains the ARE sequence of human NQO1: 5′-[…]-3′ [Moehlenkamp, J. D.; Johnson, J. A. Activation of antioxidant/electrophile-responsive elements in IMR-32 human neuroblastoma cells. Arch Biochem Biophys. 363:98-106; 1999].

The subject of test [2] is NQO1. The experiment in a line: Kinase inhibitor pre-treatment and NQO1 immunoblot. As to conditions: 10 μg/ml, 24 h, 30 min pre-treatment with PD98059 50 μM. On the procedure:
(§1) IMR-32 cells (800,000 cells/well) were seeded into each well of 6-well plates. 24 h later, cells were treated with solvent control (EtOH, 0.5%, v/v) or fractions/compounds. After another 24 h, whole cell lysates were collected in PhosphoSafe buffer (Novagen) following the manufacturer's protocol and stored at −80° C. until analyzed. For each sample, the protein concentration was measured using a BCA assay kit (Pierce). Samples containing equal amount of total protein were separated by SDS-PAGE (NuPAGE® Novex® 4-12% Bis-Tris Mini gels, Invitrogen), transferred onto a PVDF membrane, and incubated overnight with the indicated primary antibodies at 4° C. on an orbital shaker. The membranes were then incubated with the corresponding secondary antibodies (HRP-linked) for 1 h at room temperature and detected with Supersignal Femto Western Blotting kit (Pierce). Anti-NQO1 (mouse) antibody was from Abcam; anti-β-actin (rabbit), anti-mouse-HRP, and anti-rabbit-HRP antibodies were from Cell Signaling Technology.
For assays in the presence of an antioxidant, the cells were pretreated with excess NAC (1 mM, pH 7.50) for 2 h before they were treated with solvent control or the compounds (see above). […]

The test system of test [3] is NQO1. In words: NQO1 mRNA levels by qPCR in IMR-32 cells. To be noted: 1 μg/ml, 12 h. On the procedure: (§2) Cultured cells were treated in the same way as described for the immunoblot experiments. After 12 h, total RNA was extracted using a commercial kit (RNeasy Mini Kit, Qiagen). For mice tissues, total RNA was extracted using TRIzol® reagent (Invitrogen) following the standard manufacturer's protocol.
(§3) cDNA synthesis and qPCR experiments for both cultured cells and mice tissues were performed following the same procedure. 2 μg of each RNA sample was reverse-transcribed into cDNA, which served as a template for TagMan® gene expression assays (Applied Biosystems). For each qPCR run, a total reaction volume of 25 μl was prepared consisting of 12.5 μl of TaqMan 2× universal master mix, 1.25 μl of a 20× TaqMan gene expression assay probe, 1 μl of cDNA and 10.25 μl of RNase-free sterile water. The reactions were dispensed into 96-well optical reaction plates (Applied Biosystems) and detected in an Applied Biosystems® 7300 Real-Time PCR System. The thermocycler program consisted of 2 min at 50° C., 10 min at 95° C., and 40 cycles of 95° C. for 15 s and 60° C. for 1 min. For normalization, GAPDH expression was used as an internal control for human cells (IMR-32) and β-actin for mice tissue samples.

Test [4] deals with NQO1. In words: NQO1 protein expression by immunoblot in IMR-32 cells. To be noted: 24 h. As for the experimental part:
as §1

Test [5] deals with glutathione. The experiment in a line: Glutathione assay in IMR-32 cells. As for the experimental part: Glutathione assays were performed following the manufacturer's protocol (Sigma). Briefly, IMR-32 cells (800,000 cells/well) were seeded into 6-well plates and incubated at 37° C. The cells were then treated with solvent control (EtOH, 0.5%, v/v) or compound 1 for the indicated period of time. At the end of each treatment, the cells were washed twice with Dulbecco's phosphate buffered saline (DPBS), harvested in 200 μl of DPBS, and pelleted at 600×g for 10 min at 4° C. After removal of DPBS, the cell pellet was deproteinized and re-suspended in 3 volumes of 5% sulfosalicylic acid solution (v/v). The suspension was frozen (liquid N2) and thawed (37° C. water bath) twice and then incubated at 4° C. for 5 min. The cell debris was spun down at 10,000×g for 10 min at 4° C. The supernatant was transferred to fresh tubes and used as glutathione stock. The concentration of the total glutathione (GSH+GSSG) was measured and compared with a standard curve of reduced glutathione (GSH).

The subject of test [6] is NQO1. In words: RNA interference (NRF2 siRNA) and NQO1 immunoblot. To be noted: IMR-32 cells, NRF2 siRNA 48 h, then 24 h treatment. On the procedure: as §1
IMR-32 cells (600,000 cells/well) were seeded in 6-well plates and incubated at 37° C. for 24 h. […] The treated cells were then lysed in PhosphoSafe buffer and whole cell lysates analyzed by immunoblot (see above). […]

The subject of test [7] is NRF2. In words: NRF2 mRNA levels by qPCR in IMR-32 cells. To be noted: 1-10 μg/ml, 12 h. As for the experimental part: as §2, §3
[8] abbreviates: 10 μg/ml, 24 h, over solvent control.
Setting [9] is: 32 μg/ml, 24 h, over solvent control.

With `CCCCCCCCCC(=O)/C=C/CCCCCC(N)=O` [Compound 3, 7(E)-9-keto-octadec-7-enamide], the ARE activation is on record as 4.5 fold in test [1] (setting [8]) and 13.2 fold in test [1] (setting [9]).

Compound `CC(C)(C)c1cc(O)ccc1O` [tBHQ, reference compound] displayed an ARE activation in test [1] (positive control, concentration not given) of 14.9 fold.

Turning to `CCCCCCCC(=O)/C=C/CCCCCC(=O)O` [Compound 2, 7(E)-9-keto-hexadec-7-enoic acid], the ARE activation in test [1] (setting [8]) was determined as 2.8 fold; in test [1] (setting [9]), 30.3 fold.

As to `CCCCCCCCCC(=O)/C=C/CCCCCC(=O)O` [Compound 1, 7(E)-9-keto-octadec-7-enoic acid], the “NQO1 expression in the presence of a MAPK (MEK1) inhibitor” value in test [2] is reported as “induced”. Also, the “NQO1 mRNA level” value in test [3] was found to be 1.5 fold. The NQO1 protein expression entry in test [4] was “detectable starting at 1 μg/ml and was the highest at 10 μg/ml”. Moreover, the “glutathione level restored relative to basal level” value in test [5] (at 16 h) is given as “more than 50%”. For the same compound, the “transient decrease of glutathione level” value in test [5] (until 8 h) is < 30% and ~30%. For the same compound, the “glutathione level versus baseline” value in test [5] (up to 24 h) is given as “stayed above baseline”. For the same compound, in test [6], the “NQO1 expression in NRF2-depleted cells” value is recorded as “virtually undetectable”. The same compound returned an ARE activation in test [1] (setting [8]) of 17.6 fold. In test [7], the “NRF2 mRNA levels” value was “remained unchanged”.

The values are drawn from US10010569B2, “Seaweed extracts, unsaturated fatty acids, and methods of treatment” (priority 2012, dated 2018).
